Where “and” joins values, the source holds several entries; their conditions need not be identical. Equal values may be shown once. Read-outs that look alike come from different tables or passages of the source.
What was measured:
[1] = system: newly diagnosed patients with FLT3-mutant AML; details: sorafenib plus induction chemotherapy; 15 newly diagnosed patients with FLT3-mutant AML; cited from earlier work
[2] = system: newly diagnosed patients with acute myeloid leukemia (AML); assay: Phase 1b trial: efficacy; type: in vivo, human
[3] = system: newly diagnosed patients with acute myeloid leukemia (AML); details: 50 mg twice daily; either arm
[4] = Plasma concentrations of midostaurin and metabolites
[5] = system: patients with FLT3-mutant and FLT3-wild-type AML; details: single agent, cited from earlier work; for Patients with ≥ 50% peripheral blood blast reduction: 75 mg three times daily or 50 mg or 100 mg twice daily
FLT3 = details: cited from earlier work
[6] = Concomitant (days 1-7 and 15-21), 50 mg BID, Induction cycle 1, day 1
[7] = Concomitant, 50 mg BID, First consolidation cycle, day 1.5
[8] = Concomitant, 50 mg BID, First consolidation cycle, day 15.5
[9] = Concomitant, 50 mg BID, First consolidation cycle, day 29.5
[10] = Concomitant, 50 mg BID, Induction cycle 1, Day 1 (+ 2 h)
[11] = Concomitant, 50 mg BID, Induction cycle 1, Day 1 (+ 4 h)
[12] = Concomitant, 50 mg BID, Induction cycle 1, day 2
[13] = Concomitant, 50 mg BID, Induction cycle 1, day 4
[14] = Concomitant, 50 mg BID, Induction cycle 1, day 15 (+ 2 h)
[15] = Concomitant, 50 mg BID, Induction cycle 1, day 15 (+ 4 h)
[16] = Sequential (days 8-21), 50 mg BID, Induction cycle 1, day 8
[17] = Sequential, 50 mg BID, First consolidation cycle, day 1.5
[18] = Sequential, 50 mg BID, First consolidation cycle, day 15.5
[19] = Sequential, 50 mg BID, First consolidation cycle, day 29.5
[20] = Sequential, 50 mg BID, Induction cycle 1, day 8 (+ 2 h)
[21] = Sequential, 50 mg BID, Induction cycle 1, day 8 (+ 4 h)
[22] = Sequential, 50 mg BID, Induction cycle 1, day 9
[23] = Sequential, 50 mg BID, Induction cycle 1, day 15
[24] = Sequential, 50 mg BID, Induction cycle 1, day 22.5
[25] = Sequential, 50 mg BID, Induction cycle 1, day 29.5

CNC(=O)c1cc(Oc2ccc(NC(=O)Nc3ccc(Cl)c(C(F)(F)F)c3)cc2)ccn1 [Sorafenib]
CR rate [1]: 93%

CO[C@@H]1[C@H](N(C)C(=O)c2ccccc2)C[C@H]2O[C@]1(C)n1c3ccccc3c3c4c(c5c6ccccc6n2c5c31)C(=O)NC4 [midostaurin, Midostaurin]
Kaplan-Meier OS probability ([2]; 50 mg twice daily, FLT3-mutant AML, 1 year): 0.85
Kaplan-Meier OS probability ([2]; 50 mg twice daily, FLT3-mutant AML, 2 years): 0.62
Complete remission (CR) rate ([2]; 50 mg twice daily, FLT3-mutant, 12 of 13 patients): 92%
Kaplan-Meier OS probability ([2]; 50 mg twice daily, FLT3-wild-type AML, 1 year): 0.78
Kaplan-Meier OS probability ([2]; 50 mg twice daily, FLT3-wild-type AML, 2 years): 0.52
Complete remission (CR) rate ([2]; 50 mg twice daily, FLT3-wild-type, 20 of 27 patients): 74%
Complete remission (CR) rate ([2]; 50 mg twice daily, concomitant group, 16 of 20 patients): 80%
Patients who have died ([2]; 50 mg twice daily, of four patients with TKD mutations): none
Complete remission (CR) rate ([2]; 50 mg twice daily, sequential group, 16 of 20 patients): 80%
Complete remission rate ([2]; 100 mg twice daily (dose schedules I and II), 13 of 29 patients): 45%
Patients surviving more than 4 years ([2]; 100 mg twice daily, FLT3-mutant blasts, two patients): 33%
Complete remission rate ([2]; 100 mg twice daily, FLT3-wild-type blasts, 8 of 23): 35%
Patients surviving more than 4 years ([2]; 100 mg twice daily, FLT3-wild-type blasts, nine patients): 39%
Deaths on treatment or within 28 days of the last dose of study drug [3]: No deaths
Plasma concentration, Max [4, 6]: LLOQ
Plasma concentration, Median [4, 6]: LLOQ
Plasma concentration, Min [4, 6]: LLOQ
Plasma concentration, Max [4, 7]: LLOQ
Plasma concentration, Median [4, 7]: LLOQ
Plasma concentration, Min [4, 7]: LLOQ
Plasma concentration, Max [4, 8]: 1040 ng/mL
Plasma concentration, Min [4, 8]: LLOQ
Plasma concentration, Max [4, 9]: 83.8 ng/mL
Plasma concentration, Median [4, 9]: LLOQ
Plasma concentration, Min [4, 9]: LLOQ
Plasma concentration, Max [4, 10]: 2300 ng/mL
Plasma concentration, Median [4, 10]: 1170 ng/mL
Plasma concentration, Min [4, 10]: 355 ng/mL
Plasma concentration, Max [4, 11]: 3380 ng/mL
Plasma concentration, Median [4, 11]: 1010 ng/mL
Plasma concentration, Min [4, 11]: 630 ng/mL
Plasma concentration, Max [4, 12]: 4980 ng/mL
Plasma concentration, Median [4, 12]: 1490 ng/mL
Plasma concentration, Min [4, 12]: LLOQ
Plasma concentration, Max [4, 13]: 8710 ng/mL
Plasma concentration, Median [4, 13]: 2355 ng/mL
Plasma concentration, Min [4, 13]: 1680 ng/mL
Plasma concentration, Max [4, 14]: 7300 ng/mL
Plasma concentration, Median [4, 14]: 1870 ng/mL
Plasma concentration, Min [4, 14]: 87.1 ng/mL
Plasma concentration, Max [4, 15]: 7120 ng/mL
Plasma concentration, Median [4, 15]: 1420 ng/mL
Plasma concentration, Min [4, 15]: 96.3 ng/mL
Plasma concentration, Min ([4]; Concomitant, 50 mg BID, Induction cycle 1, day 22.5): LLOQ
Plasma concentration, Min ([4]; Concomitant, 50 mg BID, Induction cycle 1, day 29.5): LLOQ
Plasma concentration, Max [4, 16]: LLOQ
Plasma concentration, Median [4, 16]: LLOQ
Plasma concentration, Min [4, 16]: LLOQ
Plasma concentration, Max [4, 17]: 91.2 ng/mL
Plasma concentration, Median [4, 17]: LLOQ
Plasma concentration, Min [4, 17]: LLOQ
Plasma concentration, Max [4, 18]: 3790 ng/mL
Plasma concentration, Median [4, 18]: 1330 ng/mL
Plasma concentration, Min [4, 18]: 635 ng/mL
Plasma concentration, Max [4, 19]: 4000 ng/mL
Plasma concentration, Min [4, 19]: LLOQ
Plasma concentration, Max [4, 20]: 2880 ng/mL
Plasma concentration, Median [4, 20]: 1495 ng/mL
Plasma concentration, Min [4, 20]: 460 ng/mL
Plasma concentration, Max [4, 21]: 3660 ng/mL
Plasma concentration, Median [4, 21]: 1585 ng/mL
Plasma concentration, Min [4, 21]: 635 ng/mL
Plasma concentration, Max [4, 22]: 3290 ng/mL
Plasma concentration, Median [4, 22]: 1680 ng/mL
Plasma concentration, Min [4, 22]: 922 ng/mL
Plasma concentration, Max [4, 23]: 17100 ng/mL
Plasma concentration, Median [4, 23]: 3660 ng/mL
Plasma concentration, Min [4, 23]: 1290 ng/mL
Plasma concentration, Max [4, 24]: 19200 ng/mL
Plasma concentration, Median [4, 24]: 2755 ng/mL
Plasma concentration, Min [4, 24]: 904 ng/mL
Plasma concentration, Max [4, 25]: 4970 ng/mL
Plasma concentration, Median [4, 25]: 57.2 ng/mL
Trough concentrations during off-treatment periods ([4]; midostaurin 50 mg twice daily): low or undetectable levels
Patients with ≥ 50% peripheral blood blast reduction ([5]; FLT3-mutant (n = 55)): 70%
Patients with ≥ 50% peripheral blood blast reduction ([5]; FLT3-wild-type (n = 60)): 42%
Complete remissions (CRs) [5]: not observed

CO[C@@H]1[C@H](N(C)C(=O)c2ccccc2)C[C@H]2O[C@]1(C)n1c3ccccc3c3c4c(c5c6ccccc6n2c5c31)C(=O)N[C@H]4O [CGP52421]
Inhibition of FLT3 in vitro (FLT3): capable of inhibiting FLT3 in vitro
Plasma concentration, Max [4, 6]: LLOQ
Plasma concentration, Median [4, 6]: LLOQ
Plasma concentration, Min [4, 6]: LLOQ
Plasma concentration, Max [4, 8]: 810 ng/mL
Plasma concentration, Min [4, 8]: 810 ng/mL
Plasma concentration, individual values (n = 2; merged Median/Min/Max cell) [4, 9]: 809 ng/mL and 2990 ng/mL
Plasma concentration, Max [4, 10]: 812 ng/mL
Plasma concentration, Median [4, 10]: 170 ng/mL
Plasma concentration, Min [4, 10]: 52.9 ng/mL
Plasma concentration, Max [4, 11]: 209 ng/mL
Plasma concentration, Median [4, 11]: 137 ng/mL
Plasma concentration, Min [4, 11]: 115 ng/mL
Plasma concentration, Max [4, 12]: 460 ng/mL
Plasma concentration, Median [4, 12]: 361 ng/mL
Plasma concentration, Min [4, 12]: 228 ng/mL
Plasma concentration, Max [4, 13]: 1090 ng/mL
Plasma concentration, Median [4, 13]: 832 ng/mL
Plasma concentration, Min [4, 13]: 570 ng/mL
Plasma concentration, Max [4, 14]: 1920 ng/mL
Plasma concentration, Median [4, 14]: 1170 ng/mL
Plasma concentration, Min [4, 14]: 814 ng/mL
Plasma concentration, Max [4, 15]: 1860 ng/mL
Plasma concentration, Median [4, 15]: 1465 ng/mL
Plasma concentration, Min [4, 15]: 893 ng/mL
Plasma concentration, Max [4, 16]: LLOQ
Plasma concentration, Median [4, 16]: LLOQ
Plasma concentration, Min [4, 16]: LLOQ
Plasma concentration, Max [4, 17]: 3110 ng/mL
Plasma concentration, Median [4, 17]: 1740 ng/mL
Plasma concentration, Min [4, 17]: 835 ng/mL
Plasma concentration, Max [4, 18]: 4210 ng/mL
Plasma concentration, Median [4, 18]: 2685 ng/mL
Plasma concentration, Min [4, 18]: 1490 ng/mL
Plasma concentration, Max [4, 19]: 5320 ng/mL
Plasma concentration, Median [4, 19]: 2230 ng/mL
Plasma concentration, Min [4, 19]: 1440 ng/mL
Plasma concentration, Max [4, 20]: 194 ng/mL
Plasma concentration, Median [4, 20]: 70.8 ng/mL
Plasma concentration, Min [4, 20]: 35.9 ng/mL
Plasma concentration, Max [4, 21]: 207 ng/mL
Plasma concentration, Median [4, 21]: 113 ng/mL
Plasma concentration, Min [4, 21]: 58.2 ng/mL
Plasma concentration, Max [4, 22]: 414 ng/mL
Plasma concentration, Median [4, 22]: 293 ng/mL
Plasma concentration, Min [4, 22]: 145 ng/mL
Plasma concentration, Max [4, 23]: 1670 ng/mL
Plasma concentration, Median [4, 23]: 1460 ng/mL
Plasma concentration, Min [4, 23]: 903 ng/mL
Plasma concentration, Max [4, 24]: 3540 ng/mL
Plasma concentration, Median [4, 24]: 2800 ng/mL
Plasma concentration, Min [4, 24]: 1630 ng/mL
Plasma concentration, Max [4, 25]: 3330 ng/mL
Plasma concentration, Median [4, 25]: 1955 ng/mL
Plasma concentration, Min [4, 25]: 1350 ng/mL
Half-life (qualitative) ([4]; midostaurin 50 mg twice daily, stable levels between dosing treatment phases): long half-life

Source: PMC4118284 (Leukemia, 2012)
